The target of this assay is T1, S. aureus RNase P (RnpA + rnpB) (Staphylococcus aureus, UniProt P0A0H5).
T1 construct: hexahistidine (His6) (N); made in house; host or cells: E. coli BL21 (DE3), plasmid pEXP5-nt
T1 sequence (P0A0H5 1-117): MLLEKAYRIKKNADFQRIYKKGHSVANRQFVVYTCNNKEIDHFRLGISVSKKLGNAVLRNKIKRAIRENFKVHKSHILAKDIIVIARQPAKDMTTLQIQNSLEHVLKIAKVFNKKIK
The experiment in a line: RnpA-dependent RNase P in vitro ptRNA^Tyr processing assay. The following applies: in vitro ptRNA^Tyr processing; read-out: Processing IC50. Format: biochemical. Here is the method: S. aureus RNase P activity assays were performed according to conditions described previously. Briefly, ptRNA^Tyr and rnpB RNA species were first denatured by heating to 95 °C for 5 min then slow cooled to room temperature. RNase P was reconstituted by mixing an equal molar ratio of rnpB and RnpA for 15 min at 37 °C. Precursor tRNA processing inhibition reactions were performed by mixing 1.25 pmol of reconstituted RNase P (RnpA + rnpB) with an equal volume of 2× low salt buffer (50 mM Tris-HCl pH 8.0, 5 mM MgCl2) in the presence of DMSO (negative control) or the indicated compound (≤500 µM) and incubated for 5 min at 37 °C. 5 pmol ptRNA^Tyr was added and the mixture was incubated at 37 °C 15 min. Reactions were stopped by adding 2× RNA loading dye and heating at 65 °C for 10 min. Each sample was electrophoresed in a 7 M urea/8% polyacrylamide gel then stained with ethidium bromide. The Biorad EZ Gel Doc imaging system was used to visualize the RNA and relative abundance of the mature tRNA^Tyr band (% processing) in the negative control or in samples containing the indicated compounds and analyzed using Biorad Image Lab densitometry software. The inhibitory activity of the indicated compounds were calculated as a % inhibition using the following equation: […].
To assess IC50, % RNase P processing inhibition was plotted against compound concentration and a linear best fit equation was generated to calculate the IC50.

Consider one compound from article PMC6627331, “Identification of Small Molecule Inhibitors of Staphylococcus aureus RnpA” (Antibiotics, 2019).

The structures appear in SMILES notation.

Take `CC1CCCCN1C(=O)Nc1cc(Cl)cc(Cl)c1` (stereo not shown) [JC2]: the IC50 – broadly, the concentration needed to halve the response being measured – was determined as 200 µM.
